Reference: patent US6509369B2, “Anti-inflammatory compounds” (Ortho-McNeil Pharmaceutical, Inc., priority 1997, dated 2003)

Columns and labels:
[1] = molecular target: T1, human glucocorticoid receptor (hGR) (Homo sapiens, UniProt P04150); assay: human glucocorticoid receptor binding assay (displacement of 3(H) Triamcinolone acetonide); conditions: for hGR, value given as %: concentration not given
T1 construct: made in house; host or cells: Sf21 insect cells infected with baculovirus hGR, OR IM9 lymphoblast cell line (endogenous hGR)
T1 sequence (P04150 1-777): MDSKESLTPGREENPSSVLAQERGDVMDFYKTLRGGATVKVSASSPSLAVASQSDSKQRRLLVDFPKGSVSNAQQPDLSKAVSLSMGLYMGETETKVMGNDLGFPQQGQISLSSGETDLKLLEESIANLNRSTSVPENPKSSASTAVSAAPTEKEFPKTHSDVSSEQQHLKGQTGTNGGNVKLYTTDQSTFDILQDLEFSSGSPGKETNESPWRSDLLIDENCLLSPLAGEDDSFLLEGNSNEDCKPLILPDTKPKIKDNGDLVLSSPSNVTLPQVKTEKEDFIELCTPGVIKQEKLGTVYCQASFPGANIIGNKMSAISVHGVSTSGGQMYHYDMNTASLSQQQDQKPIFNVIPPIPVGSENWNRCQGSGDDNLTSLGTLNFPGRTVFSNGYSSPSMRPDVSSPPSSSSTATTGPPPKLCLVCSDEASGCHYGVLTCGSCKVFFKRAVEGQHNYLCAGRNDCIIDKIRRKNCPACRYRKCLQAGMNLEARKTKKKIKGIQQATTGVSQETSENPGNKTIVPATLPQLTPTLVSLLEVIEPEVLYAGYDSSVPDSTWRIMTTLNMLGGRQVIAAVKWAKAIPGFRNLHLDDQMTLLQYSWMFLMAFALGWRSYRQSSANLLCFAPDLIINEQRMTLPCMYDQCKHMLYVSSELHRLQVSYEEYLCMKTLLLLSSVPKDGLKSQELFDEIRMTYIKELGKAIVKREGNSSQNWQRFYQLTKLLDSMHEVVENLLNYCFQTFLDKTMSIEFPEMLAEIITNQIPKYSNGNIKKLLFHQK
Procedure: A human glucocorticoid receptor binding assay was carried out to determine the extent to which the compounds of this invention have the ability to bind to human glucocorticoid receptors. This binding ability may be indicative of the antiinflammatory activity of the compound. The test was carried out as follows.
Human glucocorticoid receptors were prepared from either insect cells (Sf21) infected with baculovirus hGR or from a lymphoblast cell line which expresses high levels of endogenous hGR (IM9). The receptor binding reactions, with or without test compounds, were set up in 96-well microtiter plates which were previously siliconized with SIGMACOTE™, a chlorinated organopolysiloxane in heptane. The binding components, 3(H) Triamcinolone acetonide (TAA), glycerol/molybdate-containing buffer and unlabeled compounds were added to the wells using a combination of BIOMEK laboratory automation system and repeat pipettes. After four hours of incubation, the samples were precipitated with polyethylene glycol and filtered through Whatman GF/F paper using a TOMTEK cell harvester. The filter mate with 96 samples were bound to a solid-phase scintillant and directly counted in a BETAPLATE counter. […] The activity of test compounds to displace 3(H) TAA binding to hGR is also expressed as percent inhibition at 1 μM.

[2] = tested on: human progesterone receptor (hPR); assay: human progesterone receptor binding assay (displacement of 3(H) R5020 Promegestone)
Procedure: A human progesterone receptor binding assay was performed in order to determine selectivity of the compounds, as follows. Human progesterone receptors were prepared from either insect cells (SF21) infected with baculovirus hPR A, or from a breast cancer cell line, T47D, which expresses high levels of endogenous hPR. The receptor binding reactions, with or without test compounds, were set up in 96-well microtiter plates which were previously siliconized with SIGMACOTE. The binding components, 3(H) R5020 Promegestone, a high affinity ligand for the progesterone receptors, glycerol/molybdate-containing buffer and unlabeled compounds were added to the wells using a combination of BIOMEK laboratory automation system and repeat pipettes. After overnight incubation, the samples were precipitated with polyethylene glycol and filtered through Whatman GF/F paper using a TOMTEK cell harvester. The filter mate with 96 samples were bound to a solid-phase scintillant and directly counted in the BETAPLATE counter. Only those compounds that were active in the human glucocorticoid receptor assay set forth in Example 30 were used for progesterone receptor binding to determine cross-reactivity profiles, if any. The activity of test compounds to displace 3(H) R5020 binding to hPR is expressed as percent inhibition at the two concentrations, 10^−6 and 10^−5 Molar.

[3] = tested on: oxazolone-induced ear swelling (MOCH) in albino male CD-1 mice; assay: mouse oxazolone-induced contact hypersensitization (MOCH) ear swelling; type: in vivo; conditions: for Oxazolone Ear Swelling (MOCH) % inhibition vs. Vehicle at 1 mg / inhibition in vivo at 1 mg: topical to mouse ear, one hour after oxazolone challenge, ear biopsy weight at 24 hours; for Oxazolone Ear swelling % Inhibition vs. Vehicle: topical mouse ear; for dose-related activity in the oxazolone model (in words) / topical antiinflammatory activity in the oxazolone model (in words): topical; for dose-related activity in the oxazolone model (in words): doses 0.1-3%; for topical antiinflammatory activity in the oxazolone model (in words): mouse ear; for inhibition in vivo at 1 mg: read-out: Oxazolone Ear Swelling (MOCH) % inhibition vs. Vehicle at 1 mg
Method in brief: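 Male CD-1 mice aged 7–9 weeks were sensitised on the abdomen with 3% oxazolone on Day 0 and challenged on Day 5 with 2% oxazolone on the left ear. Compounds in ethanol/propylene glycol 70:30 were applied topically to that ear 1 h after challenge. At 24 h, the weight difference between 7 mm left and right ear biopsies gave the measure of inhibition.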

[4] = tested on: TPA-induced ear edema in albino male CD1 mice; assay: TPA (phorbol ester)-induced ear edema; type: in vivo; conditions: dose 1%, topical mouse ear, 5.5 hours after TPA
Procedure: Several triphenylpropanamide compounds of this invention, having varying affinities for the human glucocorticoid receptor, were tested for topical antiinflammatory activity in mouse ear inflammation models. […] Compounds having receptor affinities closer to hydrocortisone were as nearly active as hydrocortisone in suppressing mouse oxazolone-induced contact hypersensitization (MOCH) and phorbol ester-induced ear edema. The in vivo studies of this example were conducted as follows.
Albino male CD1 mice, 7-9 weeks old were used in this example. A 0.005% (w/v) TPA or 20% (w/v) arachidonic acid (AA) solution was made in acetone. A 20 μl volume of the TPA or AA was applied to the dorsal left ear of the mouse. Compounds of this invention were placed in a composition containing ethanol/propylene glycol at a ratio of 70:30 were applied to the left ear of each mouse in an amount of 20 μl immediately after application of the TPA or AA. The right ear was not treated. The mice were sacrificed by carbon dioxide inhalation 5.5 hours after administration of TPA and one hour after administration of AA, the left and right ears were removed and a 7 mm biopsy was removed from each ear and weighed. The difference in biopsy weights between the right and left ears was calculated. Antiinflammatory effects of compounds were evident as an inhibition of the increase in ear weight.

Row | Structure (SMILES) | hGR, value given as % [1] [%] | hPR % inh 10 μM [2] | IC50 [1] [nM] | melting point [°C] | Oxazolone Ear Swelling (MOCH) % inhibition vs. Vehicle at 1 mg [3] [%] | also measured
1 | O=C(Cc1cccs1)NCC(c1ccccc1)C(c1ccccc1)c1ccccc1 (stereo not shown) [Compound 29, N-(2-thiophrne)acetyl-2,3,3-triphenylpropylamine] | – | 28.3% | 8 | – | – | Oxazolone Ear swelling % Inhibition vs. Vehicle ([3]; Experiment 1, dose 0.1%): 4.3%; Oxazolone Ear swelling % Inhibition vs. Vehicle ([3]; Experiment 1, dose 0.3%): 34.7%; Oxazolone Ear swelling % Inhibition vs. Vehicle ([3]; Experiment 1, dose 1%): 49.9%; Oxazolone Ear swelling % Inhibition vs. Vehicle ([3]; Experiment 1, dose 3%): 66.5%; dose-related activity in the oxazolone model (in words) [3]: inhibited ear swelling in a dose-dependent manner; topical antiinflammatory activity in the oxazolone model (in words) [3]: equiactive with hydrocortisone; % Inhibition of TPA Ear Edema vs. Vehicle [4]: 64.9%
2 | COc1ccccc1CCC(=O)NCC(c1ccc(Cl)cc1)C(c1ccccc1)c1ccccc1 (stereo not shown) [Compound 21] | – | 21% | 57 | 122.2 to 123.5 | – | –
3 | O=C(Cc1ccccc1)NCC(c1ccccc1)C(c1ccc(F)cc1)c1ccc(F)cc1 (stereo not shown) [Compound 15] | – | – | 21 | 87.5 to 89.7 | – | inhibition in vivo at 1 mg [3]: 47%; topical antiinflammatory activity in the oxazolone model (in words) [3]: moderate topical activity
4 | C[C@]12CCC(=O)C=C1CC[C@@H]1[C@@H]2[C@@H](O)C[C@@]2(C)[C@H]1CC[C@]2(O)C(=O)CO [hydrocortisone, reference compound] | – | – | – | – | – | Oxazolone Ear swelling % Inhibition vs. Vehicle ([3]; Experiment 1, dose 1%): 78.9%; Oxazolone Ear swelling % Inhibition vs. Vehicle ([3]; Experiment 2, dose 1%): 58.2%; % Inhibition of TPA Ear Edema vs. Vehicle [4]: 80.6%
5 | Cc1ccc(CC(=O)NCC(c2ccccc2)C(c2ccc(F)cc2)c2ccc(F)cc2)s1 (stereo not shown) [Compound 32] | – | – | 7 | – | – | Oxazolone Ear swelling % Inhibition vs. Vehicle ([3]; Experiment 2, dose 0.1%): 11.2%; Oxazolone Ear swelling % Inhibition vs. Vehicle ([3]; Experiment 2, dose 0.3%): 18.95%; Oxazolone Ear swelling % Inhibition vs. Vehicle ([3]; Experiment 2, dose 1%): 31.45%; Oxazolone Ear swelling % Inhibition vs. Vehicle ([3]; Experiment 2, dose 3%): 36.5%; dose-related activity in the oxazolone model (in words) [3]: inhibited ear swelling in a dose-dependent manner; topical antiinflammatory activity in the oxazolone model (in words) [3]: equiactive with hydrocortisone; % Inhibition of TPA Ear Edema vs. Vehicle [4]: 60.0%
6 | O=C(Cc1ccccc1)NCC(c1ccccc1)C(c1ccccc1)c1ccccc1 (stereo not shown) [Compound 1] | – | −0.2% | 890 | 146 to 147 | – | –
7 | O=C(CCCc1cccs1)NCC(c1ccccc1)C(c1ccccc1)c1ccccc1 (stereo not shown) [Compound 37] | – | 4% | 500 | – | – | –
8 | O=C(Cc1ccsc1)NCC(c1ccccc1)C(c1ccccc1)c1ccccc1 (stereo not shown) [Compound 36] | – | 22% | 25 | – | – | –

Second part, led by results:

Row | hGR, value given as % [1] [%] | hPR % inh 10 μM [2] | IC50 [1] [nM] | melting point [°C] | Structure (SMILES) | Oxazolone Ear Swelling (MOCH) % inhibition vs. Vehicle at 1 mg [3] [%] | also measured
9 | 13 | −18.6% | – | – | COc1ccccc1NC(=O)NCC1(c2ccccc2)CC1(c1ccccc1)c1ccccc1 (stereo not shown) [Compound 94] | 35 | –
10 | 17 | 33.9% | – | – | O=C(NCC1(c2ccccc2)CC1(c1ccccc1)c1ccccc1)Nc1ccccc1F (stereo not shown) [Compound 93] | 26 | –
11 | 4 | −14.3% | – | – | O=C(NCc1ccccc1)NCC1(c2ccccc2)CC1(c1ccccc1)c1ccccc1 (stereo not shown) [Compound 95] | 16 | –
12 | 68 | 7.2s % | – | – | CC(C)CC(=O)NCC1(c2ccccc2)CC1(c1ccccc1)c1ccccc1 (stereo not shown) [Compound 85] | 16 | –
13 | – | – | 723 | 138.2 to 139.9 | O=C(Cc1cccs1)NCC(c1cccs1)C(c1ccccc1)c1ccccc1 (stereo not shown) [Compound 46] | – | inhibition in vivo at 1 mg [3]: 4%
